The record followed here is PMC8583760, “Pharmacokinetic interaction between rhynchopylline and pellodendrine via CYP450 enzymes and P-gp” (Pharmaceutical Biology, 2021).

In one assay the target is T1, CYP1A2 (Rattus norvegicus, UniProt P04799).
T1 construct: native full-length enzyme in rat liver microsomes
T1 sequence (P04799 2-513): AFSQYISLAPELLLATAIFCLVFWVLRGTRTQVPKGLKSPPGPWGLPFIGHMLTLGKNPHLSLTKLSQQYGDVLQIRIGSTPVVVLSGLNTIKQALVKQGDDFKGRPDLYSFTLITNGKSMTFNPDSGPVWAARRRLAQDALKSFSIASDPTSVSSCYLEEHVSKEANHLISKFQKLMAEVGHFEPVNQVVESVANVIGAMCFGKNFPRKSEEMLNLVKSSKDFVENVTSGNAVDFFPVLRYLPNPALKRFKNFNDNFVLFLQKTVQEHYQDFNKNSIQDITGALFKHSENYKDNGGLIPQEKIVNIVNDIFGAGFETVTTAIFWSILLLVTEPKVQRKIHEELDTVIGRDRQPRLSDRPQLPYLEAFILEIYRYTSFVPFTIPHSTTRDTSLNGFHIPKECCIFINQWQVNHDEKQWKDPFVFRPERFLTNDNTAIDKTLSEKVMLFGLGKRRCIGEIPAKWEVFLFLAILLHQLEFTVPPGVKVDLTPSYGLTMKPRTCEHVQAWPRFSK
The assay is described as follows: CYP probe substrate depletion in rat liver microsomes, HPLC. In kind it is biochemical. The conditions noted are these: typical CYP1A2 substrate (not named); 0-100 μM inhibitor. A general note: Microsomes from liver hold many membrane-bound enzymes, among them those of drug oxidation.

The test system of the next assay is T2, CYP2C9.
T2 construct: gene Cyp2c11; native enzyme activity in rat liver microsomes
The assay is described as above. It is filed as biochemical. As to conditions: typical CYP2C9 substrate (not named); 0-100 μM inhibitor.

`COc1cc2c(cc1O)C[C@H]1c3cc(O)c(OC)cc3CC[N@@+]1(C)C2` [pellodendrine]: the figures for the IC50 against CYP1A2 and with CYP2C9 were 23 µM and 16.2 µM, respectively.
